# Measured values from US20230391742A1, “SMALL MOLECULE COMPOUND AND USE AND COMPOSITION THEREOF” (SOOCHOW UNIVERSITY, priority 2021, published 2023).
# Tests used:
# NAC1 protein dimer = target: T1, NAC1 protein dimer (Homo sapiens, UniProt Q96RE7); test: Dimer formation of NAC1 protein detected by immunoprecipitation and immunoblotting; format: biochemical; settings: FIG. 1
# T1 sequence (Q96RE7 1-527): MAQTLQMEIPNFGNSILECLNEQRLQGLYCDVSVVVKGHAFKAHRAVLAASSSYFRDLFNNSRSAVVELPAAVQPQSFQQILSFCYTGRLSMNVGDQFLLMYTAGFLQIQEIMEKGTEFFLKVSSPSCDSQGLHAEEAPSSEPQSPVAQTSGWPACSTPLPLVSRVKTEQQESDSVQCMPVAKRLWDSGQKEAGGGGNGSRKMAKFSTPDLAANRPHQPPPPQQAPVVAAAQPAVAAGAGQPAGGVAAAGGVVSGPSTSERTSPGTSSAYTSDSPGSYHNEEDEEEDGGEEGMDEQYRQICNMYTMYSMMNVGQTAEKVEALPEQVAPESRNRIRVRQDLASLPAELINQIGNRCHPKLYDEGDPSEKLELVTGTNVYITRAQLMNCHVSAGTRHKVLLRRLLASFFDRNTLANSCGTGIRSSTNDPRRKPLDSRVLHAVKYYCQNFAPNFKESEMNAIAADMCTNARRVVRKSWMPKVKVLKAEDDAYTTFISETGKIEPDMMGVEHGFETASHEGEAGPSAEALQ
# Description: For the selected NAI-008 (self-synthesized), the dimer formation of the target NAC1 protein by small molecule compounds was detected by immunoprecipitation technology and immunoblotting.
# SKOV3 cells [1] = test: MTT cell growth assay in SKOV3 cells; format: cell-based, human
# Experimental: (§1) SKOV3 cell line: purchased from ATCC, an ovarian cancer tumor cell line that positively expresses NAC1.
# (§2) The culture method of SKOV3 cell line was as follows: the cells were inoculated in DMEM (InVitrogen) medium containing 10% calf serum, and placed in a CO2 incubator with a volume fraction of 5% at 37° C., cultivated for two weeks.
# This embodiment used a conventional MTT method. The specific method included following:
# SKOV3 cells were plated overnight in 96-well plates at a density of 3000 cells/well. […] After 48 hours, 10 μl of MTT (5 mg/ml) was added to each well, and the supernatant was discarded after incubation at 37° C. for 4 hours. After dissolving the purple crystal with 150 μl of dimethyl sulfoxide, the plates were placed in a microplate reader (Bio-Rad Company) to detect the absorbance at 570 nm.
# SKOV3 cells [2] = test: Clonal colony formation experiment in SKOV3 cells; format: cell-based, human; settings: NAI-008 20 μM combined with cisplatin or doxorubicin (0-40 μM), SKOV3, FIG. 2B
# Experimental: as §1, §2
# In this example, conventional clonal colony formation experiments were used. The specific method included the following:
# SKOV3 cells were treated according to the experimental requirements for 24-48 hours, digested with trypsin, and the cell suspension was repeatedly pipetted to make the cells fully dispersed. The percentage of single cells were above 95%, and counted on a hemocytometer. Based on a concentration of 2000 cells per dish, 2 ml of cell suspension was inoculated into the culture dish, so that the cells were evenly dispersed. Culturing in 37° C., 5% CO2 for 7 to 14 days, with fresh medium from time to time. Observation under an inverted microscope. When macroscopic colonies appeared in the petri dish, the culture was terminated, the medium was discarded, and PBS was used to rinse twice. Crystal violet staining for 20 minutes. The results were analyzed after 2-3 washes with PBS.
# SKOV3 cells [3] = test: Immunoblot of cleaved PARP (apoptosis) in SKOV3 cells; format: cell-based, human
# Experimental: The ovarian cancer cell line SKOV3 cells were plated into 24-well plates at a density of 20,000 cells/well, and after 16-24 hours of incubation, NAI-008 was added to a final concentration of 20 μM. After 4 hours, additional cisplatin or doxorubicin was added to a final concentration of 20 μM. After 48 hours, the expression of PARP cleaved by apoptotic protein was detected by immunoblotting.
compound,measurement,setting,value
CC(C)(C)c1ccc(OCC(=O)NCC(=O)c2ccc(OC(=O)c3ccc4c(c3)OCO4)cc2)cc1 [NAI-008],formation of NAC1 protein dimer,NAC1 protein dimer,inhibits the formation of NAC1 protein dimer
same,"toxic effects on cells, single application","SKOV3 cells [1]; NAI-008 alone, SKOV3, FIGS. 2A and 2B",did not cause significant toxic effects on cells
same,enhancement of cell growth inhibition by cisplatin and doxorubicin (MTT),"SKOV3 cells [1]; NAI-008 at final concentration 20 uM combined with cisplatin or doxorubicin (0-40 μM), SKOV3, 48 hours, FIG. 2A",significantly enhances the inhibition of cell growth and proliferation by cisplatin and doxorubicin
same,enhancement of inhibitory effect of cisplatin on proliferation of SKOV3 (MTT screening),"SKOV3 cells [1]; second-round screening, combination with cisplatin, SKOV3",strongly enhances the inhibitory effect of cisplatin on the proliferation of ovarian cancer cell line SKOV3
same,enhancement of cell proliferation inhibition by cisplatin and doxorubicin (colony formation),SKOV3 cells [2],significantly enhances the inhibition of cell growth and proliferation by cisplatin and doxorubicin
same,expression of apoptotic proteins (cleaved PARP) versus cisplatin or doxorubicin alone,"SKOV3 cells [3]; NAI-008 20 μM plus cisplatin or doxorubicin 20 μM, SKOV3, 48 hours, FIG. 2C",significantly higher
same,"apoptosis, compound alone","SKOV3 cells [3]; NAI-008 alone, SKOV3",did not cause significant apoptosis
